Source: patent US20200113852A1, “METHODS OF PATIENT SELECTION AND TREATING TRXR- OR PRDX-OVEREXPRESSED CANCERS” (TRIACT THERAPEUTICS, INC., priority 2017, published 2020)
Like-named read-outs stand apart in the source and are kept apart here.

Key:
[1] = molecular target: T1, TrxR1 and other protein targets in HCT116 cells (Homo sapiens, UniProt Q16881)
T1 sequence (Q16881 1-499 isoform Q16881-5): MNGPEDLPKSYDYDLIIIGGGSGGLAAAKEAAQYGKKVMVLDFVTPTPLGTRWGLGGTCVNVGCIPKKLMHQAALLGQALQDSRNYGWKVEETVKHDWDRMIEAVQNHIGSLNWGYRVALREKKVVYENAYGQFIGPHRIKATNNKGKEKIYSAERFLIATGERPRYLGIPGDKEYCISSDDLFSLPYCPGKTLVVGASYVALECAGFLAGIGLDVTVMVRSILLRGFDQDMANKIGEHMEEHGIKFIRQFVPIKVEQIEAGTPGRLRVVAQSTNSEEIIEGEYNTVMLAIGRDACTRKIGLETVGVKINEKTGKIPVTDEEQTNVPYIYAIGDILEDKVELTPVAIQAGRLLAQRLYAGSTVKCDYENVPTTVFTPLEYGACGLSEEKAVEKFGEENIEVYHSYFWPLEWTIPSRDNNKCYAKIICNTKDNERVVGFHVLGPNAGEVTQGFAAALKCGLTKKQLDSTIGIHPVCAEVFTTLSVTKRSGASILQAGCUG
Procedure: (§3) TrxR1 immunoprecipitates (FIG. 17A) and cells extracts (FIG. 17B) were analysed by SDS-PAGE under reducing conditions followed by streptavidin-HRP blot and TrxR1 blot.
(§4) Clarified octyl-glucoside lysates (12 mg proteins) were combined with anti-TrxR1 or anti-TrxR2 monoclonal antibody coupled to protein G plus agarose (Santa Cruz Biotechnology) and mixed overnight at 4° C. Beads were recovered by centrifugation for 2 min at 1,000×g and extensively washed in octyl-glucoside lysis buffer. Precipitated complexes were eluted by incubating the beads for 20 min at 60° C. in SDS sample buffer. The amount of immunoprecipitated TrxR1 and TrxR2 was systematically checked by blots anti-TrxR1 and anti-TrxR2, respectively.

[2] = system: TrxR1 and other protein targets in HCT116 cells; conditions: GSH-depleted HCT116
Procedure: as §3, §4

[3] = system: Trx, JNK, p38MAPK, PARP in HCT116 cells; assay: Cell death signaling western blots (Trx oxidation, phospho-JNK, phospho-p38MAPK, cleaved-PARP); conditions: GSH-depleted HCT116, 7 h or 24 h
Procedure: Cells extracts were analyzed by SDS-PAGE either under reducing conditions or under non-reducing conditions in the case of Trx blot followed by blots anti-phospho-JNK, anti-phospho-p38MAPK, anti-cleaved-PARP and anti-Trx. Results are representative of three independent experiments.
After 2 h at 4° C., lysates were clarified by centrifugation and protein amounts were measured using the BCA assay (Pierce, Thermo scientific).
Equal amounts of proteins were resolved by SDS-PAGE under either non-reducing or reducing (5% 2-mercaptoethanol, 20 min at 60° C.) conditions, using 4-20% gels (Novex, Invitrogen), then subjected to semi-dry electrophoretic transfer onto nitrocellulose membranes.

[4] = molecular target: T2, TrxR in HCT116 cells (Homo sapiens, UniProt Q16881); assay: Endogenous TrxR activity in cell lysates (DTNB reduction assay); type: cell-based
T2 sequence (Q16881 1-649): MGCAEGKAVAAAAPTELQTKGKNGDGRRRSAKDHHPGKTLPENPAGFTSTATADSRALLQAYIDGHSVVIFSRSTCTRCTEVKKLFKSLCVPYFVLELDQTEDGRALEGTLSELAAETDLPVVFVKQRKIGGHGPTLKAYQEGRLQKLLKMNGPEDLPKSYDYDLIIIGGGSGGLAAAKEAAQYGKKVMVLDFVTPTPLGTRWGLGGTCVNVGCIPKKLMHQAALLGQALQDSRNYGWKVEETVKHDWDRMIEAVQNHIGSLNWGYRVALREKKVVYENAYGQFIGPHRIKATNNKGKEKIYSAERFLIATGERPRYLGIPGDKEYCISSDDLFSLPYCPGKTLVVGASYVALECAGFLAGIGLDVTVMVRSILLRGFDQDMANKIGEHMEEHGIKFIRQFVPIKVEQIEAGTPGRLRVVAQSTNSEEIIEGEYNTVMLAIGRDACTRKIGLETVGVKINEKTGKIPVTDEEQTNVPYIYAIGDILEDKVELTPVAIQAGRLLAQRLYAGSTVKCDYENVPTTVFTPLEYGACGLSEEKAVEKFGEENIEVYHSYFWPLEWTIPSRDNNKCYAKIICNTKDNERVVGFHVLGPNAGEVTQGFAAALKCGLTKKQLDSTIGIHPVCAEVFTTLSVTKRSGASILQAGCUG

[5] = system: TrxR in MDA-MB-231 cells; assay: Endogenous TrxR activity (DTNB reduction assay); type: cell-based, human; conditions: GSH-depleted MDA-MB-231; iniparib 100 μM, Auranofin 1 μM, up to 4 h
Text: Initial velocities were derived from linear regression analyses and then plotted in double reciprocal plots to obtain the half time of TrxR inhibition using an one phase exponential decay analysis (Prism, GraphPad software).

[6] = system: GSH in HCT116 and MDA-MB-453 cell lines; assay: GSH depletion with BSO (GSH-Glo glutathione assay); type: cell-based, human; conditions: 1 mM BSO for 18 h, both cell lines
Procedure: Cells were seeded (96 well plates) at increasing densities, the highest density corresponding to that used for viability studies. […] GSH amount was measured thereafter using GSH-Glo™ glutathione assay.

[7] = Phase I clinical trial GBM, pharmacokinetics; type: in vivo, human; conditions: for Metabolite/iniparib concentration ratio: arithmetic average±SD; for Cmax: human, geometric mean±SD, plasma, read-out: Cmax
Text: No cytochrome P450-inducing anticonvulsants. However, Gliadel was permitted.
Dosing is IV 2×/week continuous.

[8] = system: HCT116 cells; assay: Iniparib metabolites release, XLC-MS/MS of incubation media; type: in vitro ADME, human; set-up: unit not given beside the values
Procedure: (§1) Online solid phase extraction (SPE) was performed using the fully automated Spark Holland Symbiosis™ (Emmen, The Netherlands) in eXtraction Liquid Chromatography (XLC) mode. The Symbiosis™ has previously been described in detail (18). HySphere™ C18 HD 7 μm SPE cartridges were used (Spark Holland). Each cartridge was initially conditioned with 2 ml methanol+0.5% formic acid (FA) and then equilibrated with 2 ml water+0.5% FA, both at flow-rates of 4 ml/min. Sample (25 μl) was aspirated and loaded onto the cartridge with 1 ml water+0.5% FA at a flow-rate of 1 ml/min. […] After elution, the right clamp was washed successively with 2 ml water+0.5% FA, 2 ml methanol+0.5% FA and 2 ml water+0.5% FA at 4 ml/min. […] The mobile phase composition was returned to starting conditions over 1 min and maintained during 6 min for column equilibration. The total run time was 27 min. Mass spectrometry was performed using the Thermo® TSQ Quantum Discovery Max in electrospray positive ionization mode (Thermo, US) with the following parameters: capillary voltage=4.0 kV, capillary temperature=300° C., sheath gas pressure=40, auxiliary gas pressure=5.
(§2) All values are expressed as means±SEM of three independent experiments. ND., non detectable.

[9] = system: MDA-MB-453 cells; assay: as above; type: in vitro ADME, human; set-up: unit not given beside the values
Procedure: as §1, §2

CC(=O)OC[C@H]1O[C@@H]([S-])[C@H](OC(C)=O)[C@@H](OC(C)=O)[C@@H]1OC(C)=O.CCP(CC)CC.[Au+] [Auranofin]
TrxR1 labeling with Iniparib-biotin after preincubation ([1]; 90-min preincubation of GSH-depleted HCT116 (auranofin 10 μM or Iniparib 100 μM)): abolished
concentration preventing Iniparib-biotin labeling of the 55-kDa protein attributed to TrxR ([1]; GSH-depleted HCT116): 0.1 to 0.3 µM
concentration inhibiting all adduct formation with Iniparib-biotin [2]: 1 to 3 µM
p38MAPK and JNK phosphorylation [3]: JNK and p38MAPK activation
inhibition of TrxR activity ([4]; 1 μM, immediately after adding the compound to the cells): inhibited almost completely
IC50 ([4]; 4 h treatment, BSO-pretreated HCT116): 70 nM
TrxR reductase activity [5]: inhibition of the reductase activity

CCCCS(=N)(=O)CCC(N)C(=O)O [BSO, L-buthionine sulfoximine]
GSH content [6]: below 5 % of controls

NC(=O)c1ccc(I)c(N)c1 [I-ABM, 4-iodo-3 aminobenzamide]
Metabolite/iniparib concentration ratio ([7]; 5.1 mg/kg): 1.1 ± 0.6%
Metabolite/iniparib concentration ratio ([7]; 6.1 mg/kg): 0.9 ± 0.6%
Metabolite/iniparib concentration ratio ([7]; 6.8 mg/kg): 1.1 ± 0.9%
Metabolite/iniparib concentration ratio ([7]; 8.0 mg/kg): 0.3 ± 0.1%
Metabolite/iniparib concentration ratio ([7]; 8.6 mg/kg): 0.8 ± 0.6%
Metabolite/iniparib concentration ratio ([7]; 9.5 mg/kg): 0.8 ± 0.6%
Cmax ([7]; 5.1 mg/kg IV 2×/week): 5.7 ± 4.1 ng/mL
Cmax ([7]; 6.1 mg/kg IV 2×/week): 7.2 ± 1.8 ng/mL
Cmax ([7]; 6.8 mg/kg IV 2×/week): 8.4 ± 3.7 ng/mL
Cmax ([7]; 8.0 mg/kg IV 2×/week): 10.3 ± 2.9 ng/mL
Cmax ([7]; 8.6 mg/kg IV 2×/week): 9.7 ± 2.4 ng/mL
Cmax ([7]; 9.5 mg/kg IV 2×/week): 13.6 ± 5.3 ng/mL
Iniparib and metabolites in incubation media ([8]; HCT116 w BSO, 1 h after 100 μM Iniparib): 0.3 ± 0.1
Iniparib and metabolites in incubation media ([8]; HCT116 w BSO, 5 h after 100 μM Iniparib): 1.1 ± 0.3
Iniparib and metabolites in incubation media ([8]; HCT116 w BSO, 24 h after 100 μM Iniparib): 4.4 ± 1.2
Iniparib and metabolites in incubation media ([8]; HCT116 w/o BSO, 1 h after 100 μM Iniparib): 0.2 ± 0.1
Iniparib and metabolites in incubation media ([8]; HCT116 w/o BSO, 5 h after 100 μM Iniparib): 0.4 ± 0.1
Iniparib and metabolites in incubation media ([8]; HCT116 w/o BSO, 24 h after 100 μM Iniparib): 0.5 ± 0.2
Iniparib and metabolites in incubation media ([9]; MDA-MB-453 w BSO, 1 h after 100 μM Iniparib): 0.3 ± 0.1
Iniparib and metabolites in incubation media ([9]; MDA-MB-453 w BSO, 5 h after 100 μM Iniparib): 1.4 ± 0.1
Iniparib and metabolites in incubation media ([9]; MDA-MB-453 w BSO, 24 h after 100 μM Iniparib): 5.4 ± 0.2
Iniparib and metabolites in incubation media ([9]; MDA-MB-453 w/o BSO, 1 h after 100 μM Iniparib): 0.2 ± 0.0
Iniparib and metabolites in incubation media ([9]; MDA-MB-453 w/o BSO, 5 h after 100 μM Iniparib): 0.5 ± 0.2
Iniparib and metabolites in incubation media ([9]; MDA-MB-453 w/o BSO, 24 h after 100 μM Iniparib): 2.6 ± 0.2
